# Experimental data published in ChEMBL document CHEMBL4400519, “Indazolylketones as new multitarget cannabinoid drugs” (Eur J Med Chem, 2019).
# Calls of active or inactive are those of the source. The rule behind the calls is not given here.
# How the values were obtained:
# Acetylcholinesterase [1] = molecular target: T1, Acetylcholinesterase (Homo sapiens, UniProt P22303); assay: Inhibition of human erythrocyte AChE at 10 uM using acetylthiocholine as substrate by Ellman's assay
# [2] = molecular target: T2, Cannabinoid receptor (Mus musculus) (UniProt P47746+P47936); assay: Agonist activity at cannabinoid receptor in ICR mouse vas deferens assessed as inhibition of electrically induced contractions at 1.82 x 10^-5 M after 10 mins in presence of CB1 antagonist AM251 and CB2 antagonist AM630 relative to control; assay type: protein assay
# Homo sapiens [3] = species: Homo sapiens; assay: Antiproliferative activity against Alzheimer's patient derived lymphoblast cells at 5 uM in presence of CB2 antagonist AM630 after 72 hrs by MTT assay; assay type: functional
# [4] = molecular target: T2, Cannabinoid receptor (Mus musculus); assay: Agonist activity at cannabinoid receptor in ICR mouse vas deferens assessed as inhibition of electrically induced contractions at 9 x 10^-7 M after 10 mins in presence of CB1 antagonist AM251 and CB2 antagonist AM630 relative to control; assay type: protein assay
# [5] = molecular target: T2, Cannabinoid receptor (Mus musculus); assay: Agonist activity at cannabinoid receptor in ICR mouse vas deferens assessed as inhibition of electrically induced contractions at 8.1 x 10^-6 M after 10 mins in presence of CB1 antagonist AM251 and CB2 antagonist AM630 relative to control; assay type: protein assay
# SH-SY5Y [6] = assay: Neuroprotective activity against amyloid beta-induced neurodegeneration in human SH-SY5Y cells at 10 uM preincubated for 1 hr followed by amyloid beta addition and measured after 24 hrs by MTT assay; assay type: functional, cell-based
# [7] = molecular target: T2, Cannabinoid receptor (Mus musculus); assay: Agonist activity at cannabinoid receptor in ICR mouse vas deferens assessed as inhibition of electrically induced contractions at 3 x 10^-7 M after 10 mins in presence of CB1 antagonist AM251 and CB2 antagonist AM630 relative to control; assay type: protein assay
# Homo sapiens [8] = species: Homo sapiens; assay: Antiproliferative activity against Alzheimer's patient derived lymphoblast cells at 5 uM after 72 hrs by MTT assay; assay type: functional
# [9] = molecular target: T2, Cannabinoid receptor (Mus musculus); assay: Agonist activity at cannabinoid receptor in ICR mouse vas deferens assessed as inhibition of electrically induced contractions at 2.7 x 10^-6 M after 10 mins relative to control; assay type: protein assay
# [10] = molecular target: T2, Cannabinoid receptor (Mus musculus); assay: Agonist activity at cannabinoid receptor in ICR mouse vas deferens assessed as inhibition of electrically induced contractions at 3 x 10^-7 M after 10 mins relative to control; assay type: protein assay
# [11] = Antiproliferative activity against normal human derived lymphoblast cells at 5 uM after 72 hrs by MTT assay
# Cholinesterase [12] = molecular target: T3, Cholinesterase (Homo sapiens, UniProt P06276); assay: Non-competitive inhibition of human serum BChE using butyrylthiocholine as substrate by Lineweaver-Burk plot analysis
# SH-SY5Y [13] = assay: Neuroprotective activity against amyloid beta-induced neurodegeneration in human SH-SY5Y cells at 20 uM preincubated for 1 hr followed by amyloid beta addition and measured after 24 hrs by MTT assay; assay type: functional, cell-based
# [14] = molecular target: T2, Cannabinoid receptor (Mus musculus); assay: Agonist activity at cannabinoid receptor in ICR mouse vas deferens assessed as inhibition of electrically induced contractions at 10^-7 M after 10 mins relative to control; assay type: protein assay
# [15] = molecular target: T2, Cannabinoid receptor (Mus musculus); assay: Agonist activity at cannabinoid receptor in ICR mouse vas deferens assessed as inhibition of electrically induced contractions at 9 x 10^-7 M after 10 mins relative to control; assay type: protein assay
# [16] = molecular target: Beta-secretase 1 (Homo sapiens) (UniProt P56817); assay: Inhibition of human BACE1 at 10 uM incubated for 60 mins using rhodamine-EVNLDAEFK-quencher substrate by FRET assay
# [17] = molecular target: T2, Cannabinoid receptor (Mus musculus); assay: Agonist activity at cannabinoid receptor in ICR mouse vas deferens assessed as inhibition of electrically induced contractions at 8.1 x 10^-6 M after 10 mins relative to control; assay type: protein assay
# [18] = molecular target: T2, Cannabinoid receptor (Mus musculus); assay: Agonist activity at cannabinoid receptor in ICR mouse vas deferens assessed as inhibition of electrically induced contractions at 2.7 x 10^-6 M after 10 mins in presence of CB1 antagonist AM251 and CB2 antagonist AM630 relative to control; assay type: protein assay
# [19] = molecular target: T2, Cannabinoid receptor (Mus musculus); assay: Agonist activity at cannabinoid receptor in ICR mouse vas deferens assessed as inhibition of electrically induced contractions at 1.82 x 10^-5 M after 10 mins relative to control; assay type: protein assay
# Acetylcholinesterase [20] = molecular target: T1, Acetylcholinesterase; assay: Inhibition of human erythrocyte AChE using acetylthiocholine as substrate by Ellman's assay
# [21] = molecular target: T2, Cannabinoid receptor (Mus musculus); assay: Agonist activity at cannabinoid receptor in ICR mouse vas deferens assessed as inhibition of electrically induced contractions at 10^-7 M after 10 mins in presence of CB1 antagonist AM251 and CB2 antagonist AM630 relative to control; assay type: protein assay
# Cholinesterase [22] = molecular target: T3, Cholinesterase; assay: Inhibition of human serum BChE using butyrylthiocholine as substrate by Ellman's assay
# [23] = molecular target: T2, Cannabinoid receptor (Mus musculus); assay: Agonist activity at cannabinoid receptor in ICR mouse vas deferens assessed as inhibition of electrically induced contractions at 2.7 x 10^-6 M after 10 mins in presence of CB1 antagonist AM251 relative to control; assay type: protein assay
# [24] = molecular target: T2, Cannabinoid receptor (Mus musculus); assay: Agonist activity at cannabinoid receptor in ICR mouse vas deferens assessed as inhibition of electrically induced contractions at 10^-7 M after 10 mins in presence of CB1 antagonist AM251 relative to control; assay type: protein assay
# [25] = molecular target: T2, Cannabinoid receptor (Mus musculus); assay: Agonist activity at cannabinoid receptor in ICR mouse vas deferens assessed as inhibition of electrically induced contractions at 3 x 10^-7 M after 10 mins in presence of CB1 antagonist AM251 relative to control; assay type: protein assay
# [26] = Antioxidant activity assessed as trolox equivalent of APPH-induced radical scavenging activity by ORAC-FL assay; assay type: functional
# [27] = molecular target: T2, Cannabinoid receptor (Mus musculus); assay: Agonist activity at cannabinoid receptor in ICR mouse vas deferens assessed as inhibition of electrically induced contractions at 1.82 x 10^-5 M after 10 mins in presence of CB1 antagonist AM251 relative to control; assay type: protein assay
# SH-SY5Y [28] = assay: Neuroprotective activity against amyloid beta-induced neurodegeneration in human SH-SY5Y cells at 10 uM preincubated for 1 hr followed by amyloid beta addition and measured after 24 hrs CB2 antagonist AM630 by MTT assay; assay type: functional, cell-based
# [29] = molecular target: T2, Cannabinoid receptor (Mus musculus); assay: Agonist activity at cannabinoid receptor in ICR mouse vas deferens assessed as inhibition of electrically induced contractions at 9 x 10^-7 M after 10 mins in presence of CB1 antagonist AM251 relative to control; assay type: protein assay
# [30] = molecular target: T2, Cannabinoid receptor (Mus musculus); assay: Agonist activity at cannabinoid receptor in ICR mouse vas deferens assessed as inhibition of electrically induced contractions at 1.82 x 10^-5 M after 10 mins in presence of CB2 antagonist AM630 relative to control; assay type: protein assay
# [31] = molecular target: T2, Cannabinoid receptor (Mus musculus); assay: Agonist activity at cannabinoid receptor in ICR mouse vas deferens assessed as inhibition of electrically induced contractions at 8.1 x 10^-6 M after 10 mins in presence of CB1 antagonist AM251 relative to control; assay type: protein assay
# [32] = molecular target: T2, Cannabinoid receptor (Mus musculus); assay: Agonist activity at cannabinoid receptor in ICR mouse vas deferens assessed as inhibition of electrically induced contractions at 8.1 x 10^-6 M after 10 mins in presence of CB2 antagonist AM630 relative to control; assay type: protein assay
# T1 sequence (P22303 whole entry): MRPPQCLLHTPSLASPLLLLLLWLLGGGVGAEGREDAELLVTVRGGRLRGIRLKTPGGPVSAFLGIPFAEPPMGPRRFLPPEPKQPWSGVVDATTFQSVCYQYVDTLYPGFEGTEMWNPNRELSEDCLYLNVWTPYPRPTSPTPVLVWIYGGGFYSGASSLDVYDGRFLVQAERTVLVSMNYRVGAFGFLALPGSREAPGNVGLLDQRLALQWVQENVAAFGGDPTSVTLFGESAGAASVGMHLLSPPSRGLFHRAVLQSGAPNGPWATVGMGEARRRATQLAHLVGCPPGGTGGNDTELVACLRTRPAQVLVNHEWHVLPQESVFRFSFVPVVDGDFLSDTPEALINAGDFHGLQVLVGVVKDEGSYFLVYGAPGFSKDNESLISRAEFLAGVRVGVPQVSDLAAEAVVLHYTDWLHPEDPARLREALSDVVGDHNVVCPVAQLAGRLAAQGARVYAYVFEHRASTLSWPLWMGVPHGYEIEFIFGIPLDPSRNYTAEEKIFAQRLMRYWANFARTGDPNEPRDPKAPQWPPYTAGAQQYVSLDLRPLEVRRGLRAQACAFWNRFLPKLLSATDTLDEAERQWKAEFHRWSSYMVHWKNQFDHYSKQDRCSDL
# T2 sequence (P47746 whole entry, looked up): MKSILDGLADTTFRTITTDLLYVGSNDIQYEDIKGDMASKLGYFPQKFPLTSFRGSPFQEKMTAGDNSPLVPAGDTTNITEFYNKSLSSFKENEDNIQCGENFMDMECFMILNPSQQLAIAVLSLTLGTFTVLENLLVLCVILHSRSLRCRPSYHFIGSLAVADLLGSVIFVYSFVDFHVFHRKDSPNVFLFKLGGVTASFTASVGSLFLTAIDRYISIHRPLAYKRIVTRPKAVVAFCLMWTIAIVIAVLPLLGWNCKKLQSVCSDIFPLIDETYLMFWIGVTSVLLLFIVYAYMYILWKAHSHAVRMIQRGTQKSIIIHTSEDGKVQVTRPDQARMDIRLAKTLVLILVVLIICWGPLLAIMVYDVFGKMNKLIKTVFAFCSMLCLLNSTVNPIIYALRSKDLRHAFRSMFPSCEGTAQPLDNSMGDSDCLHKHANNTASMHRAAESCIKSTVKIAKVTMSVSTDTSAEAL
# T2 sequence (P47936 whole entry, looked up): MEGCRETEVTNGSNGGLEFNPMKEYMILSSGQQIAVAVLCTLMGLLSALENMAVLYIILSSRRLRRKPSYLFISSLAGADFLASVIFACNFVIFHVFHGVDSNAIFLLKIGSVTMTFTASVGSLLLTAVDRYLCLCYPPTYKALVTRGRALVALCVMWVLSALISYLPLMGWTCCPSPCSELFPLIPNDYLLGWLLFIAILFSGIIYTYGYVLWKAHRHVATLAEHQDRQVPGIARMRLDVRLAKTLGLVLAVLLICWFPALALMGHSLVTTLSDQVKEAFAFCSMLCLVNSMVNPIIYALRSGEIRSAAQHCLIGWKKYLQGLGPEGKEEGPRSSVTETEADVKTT
# Beta-secretase 1 (Homo sapiens), sequence (P56817 whole entry): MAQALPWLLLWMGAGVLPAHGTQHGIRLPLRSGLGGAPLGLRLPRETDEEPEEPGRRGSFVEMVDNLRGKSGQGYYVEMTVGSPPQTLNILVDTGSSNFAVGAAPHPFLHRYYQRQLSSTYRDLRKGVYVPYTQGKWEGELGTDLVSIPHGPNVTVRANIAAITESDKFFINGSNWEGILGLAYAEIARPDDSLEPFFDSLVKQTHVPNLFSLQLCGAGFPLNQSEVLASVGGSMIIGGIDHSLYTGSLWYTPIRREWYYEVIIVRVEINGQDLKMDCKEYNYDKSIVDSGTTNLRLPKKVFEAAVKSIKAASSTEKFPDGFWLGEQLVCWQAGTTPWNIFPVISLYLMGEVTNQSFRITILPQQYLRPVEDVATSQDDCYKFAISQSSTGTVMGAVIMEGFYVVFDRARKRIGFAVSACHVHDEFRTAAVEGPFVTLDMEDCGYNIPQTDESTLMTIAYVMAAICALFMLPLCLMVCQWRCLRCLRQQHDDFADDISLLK
# T3 sequence (P06276 whole entry): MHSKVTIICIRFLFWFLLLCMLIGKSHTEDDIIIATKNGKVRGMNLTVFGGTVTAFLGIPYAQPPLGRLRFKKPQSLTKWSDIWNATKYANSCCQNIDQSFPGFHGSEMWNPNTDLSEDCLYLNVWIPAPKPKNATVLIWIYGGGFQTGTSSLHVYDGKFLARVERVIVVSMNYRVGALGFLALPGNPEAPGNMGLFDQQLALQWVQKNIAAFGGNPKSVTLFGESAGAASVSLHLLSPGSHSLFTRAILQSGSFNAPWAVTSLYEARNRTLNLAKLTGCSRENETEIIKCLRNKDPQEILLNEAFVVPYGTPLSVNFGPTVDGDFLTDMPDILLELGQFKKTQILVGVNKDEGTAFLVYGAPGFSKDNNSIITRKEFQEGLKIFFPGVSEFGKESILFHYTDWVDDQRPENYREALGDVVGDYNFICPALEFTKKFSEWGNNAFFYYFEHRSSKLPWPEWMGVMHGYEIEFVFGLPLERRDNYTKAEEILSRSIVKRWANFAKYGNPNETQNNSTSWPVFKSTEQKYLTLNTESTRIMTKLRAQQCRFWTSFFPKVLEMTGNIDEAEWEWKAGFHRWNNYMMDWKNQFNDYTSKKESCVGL
Compound,Activity (Homo sapiens [3]),Activity (SH-SY5Y [6]),Activity (Homo sapiens [8]),inhibition [9] [%],inhibition [10] [%],Activity [11],inhibition [14] [%],inhibition [15] [%],inhibition [16] [%],inhibition [17] [%],inhibition [19] [%],IC50 (Acetylcholinesterase [20]) [µM],further results
COc1ccc(COc2nn(CCN(C(C)C)C(C)C)c3ccccc23)cc1,inactive,Active,Active,43.1,8.5,Non-Toxic,7.5,18.6,9,74.7,86.4,> 10,inhibition (Acetylcholinesterase [1]): 24%; inhibition [2]: 84%; inhibition [4]: 12%; inhibition [5]: 60%; inhibition [7]: 8.2%; inhibition (Cholinesterase [12]): Active; Activity (SH-SY5Y [13]): Active; inhibition [18]: 20.3%; inhibition [21]: 1.3%
Cc1cc(C)c(C(=O)n2nc(OCCN3CCCCC3)c3ccccc32)c(C)c1,inactive,Active,Active,14,3.6,Non-Toxic,2.6,6.5,12,30.7,56.8,11.6,IC50 (Cholinesterase [22]): 0.29 µM; inhibition [23]: 8.7%; inhibition [24]: -0.4%; inhibition [25]: 1.4%; Activity [26]: inactive; inhibition [27]: 40.7%; Activity (SH-SY5Y [28]): inactive; inhibition [29]: 7.6%; inhibition [30]: 1.3%; inhibition [31]: 19.8%; inhibition [32]: -4.7%
